Patent US20250268903A1, “RXFP1 AGONISTS” (BRISTOL-MYERS SQUIBB COMPANY, priority 2021, published 2025)

The compounds below were run against T1, human RXFP1 (Homo sapiens, UniProt Q9HBX9) (assay: hRXFP1 HEK293 cAMP assay (HTRF)). Conditions: HEK293 cells stably expressing human RXFP1, 30 min at room temperature.
T1 construct: expressed in transfected cells
T1 sequence (Q9HBX9 1-757): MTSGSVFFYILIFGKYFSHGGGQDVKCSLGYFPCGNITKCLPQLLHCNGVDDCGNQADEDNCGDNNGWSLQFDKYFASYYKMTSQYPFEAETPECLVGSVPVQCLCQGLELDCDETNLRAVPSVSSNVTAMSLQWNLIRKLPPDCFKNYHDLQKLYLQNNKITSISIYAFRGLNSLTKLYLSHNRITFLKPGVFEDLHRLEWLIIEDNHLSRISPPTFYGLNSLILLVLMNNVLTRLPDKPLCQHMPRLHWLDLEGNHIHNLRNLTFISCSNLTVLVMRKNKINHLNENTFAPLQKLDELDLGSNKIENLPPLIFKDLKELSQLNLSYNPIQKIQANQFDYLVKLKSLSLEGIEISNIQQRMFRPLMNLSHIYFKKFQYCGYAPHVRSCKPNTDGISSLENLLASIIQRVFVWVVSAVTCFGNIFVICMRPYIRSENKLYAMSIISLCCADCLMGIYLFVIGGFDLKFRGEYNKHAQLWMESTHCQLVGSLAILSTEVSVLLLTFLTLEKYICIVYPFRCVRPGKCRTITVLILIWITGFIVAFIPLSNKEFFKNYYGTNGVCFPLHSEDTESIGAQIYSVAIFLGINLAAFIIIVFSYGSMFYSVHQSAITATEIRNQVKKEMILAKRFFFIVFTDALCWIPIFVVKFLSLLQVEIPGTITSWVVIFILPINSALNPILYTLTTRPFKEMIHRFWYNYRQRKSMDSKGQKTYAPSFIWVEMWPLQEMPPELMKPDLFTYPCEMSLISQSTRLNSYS
Type: cell-based
Summary of the method: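 HEK293 cells stably expressing human RXFP1 were suspended in HBSS (Ca/Mg) with 20 mM HEPES, 0.05% BSA and 0.5 mM IBMX, then treated with compounds (0.010 nM–50 μM, 2% DMSO final) for 30 min at room temperature. Intracellular cAMP was measured by HTRF, and potency was derived from 4-parameter logistic fits.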

| EC50 [nM] | Compound |
| --- | --- |
| 4020 | COC(=O)[C@@H]1CCN(C(=O)Cc2ccc(OC)c(C(=O)NC3C(C(=O)Nc4ccc(F)c(C(F)(F)F)c4)[C@H]4CC[C@@H]3/C4=C\C3CC3)c2)C1 (some centres unmarked) [Example 356] |
| 32 | COc1ccc(C(=O)N2CCO[C@@H](CO)C2)cc1C(=O)N[C@H]1[C@@H](C(=O)Nc2ccc(F)c(C(F)(F)F)c2)[C@H]2CC[C@@H]1/C2=C\C1CC1 [Example 231, (1R,2S,3R,4R,7Z)-7-(cyclopropylmethyl-idene)-N-[4-fluoro-3-(trifluoromethyl)phenyl]-3-{5-[(2R)-2-(hydroxymethyl)morpholine-4-carbonyl]-2-methoxybenzamido} bicyclo[2.2.1] heptane-2-carboxamide] |
| 49.9 | COc1ccc(C2CC3CC(CO)CC32)cc1C(=O)N[C@H]1[C@@H](C(=O)Nc2ccc(F)c(C(F)(F)F)c2)[C@H]2CC[C@@H]1/C2=C\C1CC1 (single isomer, unassigned) [Example 352] |

Further lines, the compound ahead of its results:

| Compound | EC50 [nM] |
| --- | --- |
| COc1ccc(CCC(C)(C)O)cc1C(=O)NC1C2CCC(/C2=C/CC(C)(C)C)[C@@H]1C(=O)Nc1ccc(F)c(C(F)(F)F)c1 (some centres unmarked) [Example 163, (7Z)-7-(3,3-dimethylbutylidene)-N-[4-fluoro-3-(trifluoromethyl)phe-nyl]-3-[5-(3-hydroxy-3-methylbutyl)-2-methoxybenzamido] bicyclo[2.2.1]heptane-2-carboxamide] | 278 |
| COc1ccc(CCC(F)(F)F)cc1C(=O)NC1C2CCC(/C2=C/C(F)(F)F)[C@@H]1C(=O)Nc1ccc(F)c(C(F)(F)F)c1 (some centres unmarked) [Example 187, (7Z)-N-[4-fluoro-3-(trifluoromethyl)phe-nyl]-3-[2-methoxy-5-(3,3,3-trifluoropropyl)benz-amido]-7-(2,2,2-trifluoroethylidene)bi-cyclo[2.2.1]heptane-2-carboxamide] | 385 |
| COc1ccc(CCCC(F)F)cc1C(=O)NC1C2CCC(/C2=C/C2CCC2)[C@@H]1C(=O)Nc1ccc(F)c(C(F)(F)F)c1 (some centres unmarked) [Example 196, (7Z)-7-(cyclobutylmethyl-idene)-3-[5-(4,4-difluorobutyl)-2-methoxybenzamido]-N-[4-fluoro-3-(trifluoromethyl)phe-nyl]bicyclo[2.2.1] heptane-2-carboxamide] | 32 |
| COc1ccc(S(=O)(=O)N2CCNCC2)cc1C(=O)NC1C2CCC(/C2=C/C(F)(F)F)[C@@H]1C(=O)Nc1ccc(F)c(C(F)(F)F)c1 (stereo partly drawn) [Example 203, (2S,3R,7Z)-N-[4-fluoro-3-(trifluoromethyl)phe-nyl]-3-[2-methoxy-5-(piperazine-1-sulfonyl)benzamido]-7-(2,2,2-trifluoroethylidene)bi-cyclo[2.2.1]heptane-2-carboxamide] | 858 |
| COc1ccc(CCCn2cc(-c3ccccc3)nn2)cc1C(=O)N[C@@H]1C2CCC(/C2=C/C(F)(F)F)[C@@H]1C(=O)Nc1ccc(F)c(C(F)(F)F)c1 (some centres unmarked) [Example 123] | 1270 |
| COc1ccc(C#C[C@@H](C)O)cc1C(=O)N[C@@H]1C2CCC(/C2=C/C2CC2)[C@@H]1C(=O)Nc1ccc(F)c(C(F)(F)F)c1 (stereo partly drawn) [Example 73, (2S,3R,7Z)-7-(cyclopropylmethyli-dene)-N-[4-fluoro-3-(trifluoromethyl)phe-nyl]-3-{5-[(3R)-3-hydroxybut-1-yn-1-yl]-2-methoxybenzamido} bicyclo[2.2.1]heptane-2-carboxamide] | 88 |
| COc1ccc(C2CCCC(O)C2)cc1C(=O)N[C@@H]1C2CCC(/C2=C/C(F)(F)F)[C@@H]1C(=O)Nc1ccc(F)c(C(F)(F)F)c1 (single isomer, unassigned) [Example 38] | 250 |
| COc1ccc(CCCO)cc1C(=O)NC1C2CCC(/C2=C/C2CC(F)(F)C2)[C@@H]1C(=O)Nc1ccc(F)c(C(F)(F)F)c1 (stereo partly drawn) [Example 159, (2S,3R,7Z)-7-[(3,3-difluorocyclobutyl)methylidene]-N-[4-fluoro-3-(trifluoromethyl)phe-yl]-3-[5-(3-hydroxypropyl)-2-methoxybenzamideo] bicyclo[2.2.1]heptane-2-carboxamide] | 43 |
